From US12279611B2, “Method for controlling insects where an alkoxylated glycerol is applied to soil” (priority 2016, dated 2025)
Several values for one entry are separate records, joined by “and”; a condition that tells them apart may be missing. Equal entries are not always repeated.

How the values were obtained:
[1] = Wetting front test (soil migration by capillary action in soil-filled tubes, wetting front measured by caliper); format: physicochemical; conditions: for Migration: single replicates
Description: • Polymer A: Polymer formed from glycerol and ethylene oxide and propylene oxide units; molecular weight about 3000 g/mol, hydroxyl number about 56 mg KOH/g, clear liquid, dynamic viscosity at 25° C. about 582 cP, density at 25° C. about 1.02 g/cm^3. • Polymer B: Liquid composition, 70 wt % Polymer A, 10 wt % nonionic surfactant (ethoxylated alcohol, HLB about 13, hydroxyl number about 125), 10 wt % anionic surfactant (dodecylbenzene calcium sulfonate), and 10 wt % 1,2-propylene glycol. • Surfactant A: liquid, nonionic ethoxylated tristyrylphenol, HLB 10-11. • Surfactant B: nonionic EO-PO-EO Triblockcopolymer, average molecular weight about 2500 Da, pour point −4° C., HLB 1-7, solubility in water at least 10 wt % at 25° C. • Surfactant C: Alkyl polyethylene glycol ether based on C10-Guerbet alcohol, HLB about 13, solubility in water at least 10 wt % at 23° C. • Surfactant D: Calcium dodecylbenzene sulfonate. • Silica Thickener: White powder, hydrophilic fumed silica, specific surface area (BET) about 200 m^2/g; average primary particle diameter 12 nm, tapped density about […]. Wetting Front Test Procedure
A fine nylon netting was adhered (Polyseamseal® Caulk, Henkel Corp) to one end each of 15 cm×1.5 cm plastic tubes. Tubes were filled with Greenville silt loam (sand:silt:clay, 22:58:20). As soil was added, tubes were tapped on the lab bench to loosely pack the soil (approximately 50 g soil per tube). Aqueous solutions of subject treatments were prepared. Solutions (4 ml) were added to glass beakers (50 ml capacity), and the soil-filled tubes were placed in the beakers. Each treatment was replicated 4 times. […] Means were separated at the […] via ANOVA followed by Tukey's HSD.

[2] = Wetting front test with segment analysis (soil segments extracted with acetonitrile, broflanilide quantified by HPLC-UV); format: physicochemical; conditions: Example 3; for Concentration of broflanilide in segment 0-2 cm (average of four replicates): soil segment 0-2 cm; for Concentration of broflanilide in segment 2-4 cm (average of four replicates): soil segment 2-4 cm; for Concentration of broflanilide in segment 4-6 cm (average of four replicates): soil segment 4-6 cm; for Concentration of broflanilide in segment 6-8 cm (average of four replicates): soil segment 6-8 cm; for Concentration of broflanilide in segment 8-10 cm (average of four replicates): soil segment 8-10 cm
Description: A fine nylon netting was adhered (Polyseamseal® Caulk, Henkel Corp) to one end each of 15 cm×1.5 cm plastic tubes. Tubes were filled with Greenville silt loam (sand:silt:clay, 22:58:20). As soil was added, tubes were tapped on the lab bench to loosely pack the soil (approximately 50 g soil per tube). Aqueous solutions of subject treatments were prepared. Solutions (4 ml) were added to glass beakers (50 ml capacity), and the soil-filled tubes were placed in the beakers. Each treatment was replicated 4 times. The solutions migrated upward into the soil via capillary action, and after 20 hours, the wetting front was measured in three locations using a digital caliper. Means were separated at the […] via ANOVA followed by Tukey's HSD. An aqueous solution comprising 600 ppm broflanilide was made from an aqueous suspension concentrate comprising 100 g/l broflanilide. Optionally 3000 ppm of Polymer B was added. The wetting front test was made as described above with another analytical method: The soil filled tubes (four replicates for both the sample with and without polymer) were separated in seven segments with each 2 cm long. The segment “0-2 cm” was the segment on the bottom which had direct contact to the aqueous solution of broflanilide. The segments (about 4.0 g each) were extracted twice with acetonitrile. The amount of broflanilide was quantified via HPLC with UV detection.

[3] = Example 2, 600 ppm broflanilide + 1500 ppm Polymer A, Greenville silt loam, 20 hours
[4] = Example 2, 600 ppm broflanilide + 3000 ppm Polymer A, Greenville silt loam, 20 hours
[5] = Example 2, 600 ppm broflanilide + 4200 ppm Polymer A, Greenville silt loam, 20 hours
[6] = Example 4, 600 ppm broflanilide + 300 ppm Polymer A, Greenville silt loam, 20 hours
[7] = Example 4, 600 ppm broflanilide + 600 ppm Polymer A, Greenville silt loam, 20 hours
[8] = Example 4, 600 ppm broflanilide + 1500 ppm Polymer A, Greenville silt loam, 20 hours
[9] = Example 4, 600 ppm broflanilide, no polymer, Greenville silt loam, 20 hours
[10] = 600 ppm broflanilide + 3000 ppm Polymer B
[11] = 600 ppm broflanilide, no polymer
[12] = Example 1, 600 ppm chlorfenapyr + 1200 ppm Polymer B, Greenville silt loam, 20 hours
[13] = Example 1, 600 ppm chlorfenapyr + 3000 ppm Polymer B, Greenville silt loam, 20 hours
[14] = Example 5, 600 ppm fipronil + 1200 ppm Polymer B, after 2 h
[15] = Example 5, 600 ppm fipronil + 1200 ppm Polymer B, after 20 h
[16] = Example 5, 600 ppm fipronil + 3000 ppm Polymer B, after 2 h
[17] = Example 5, 600 ppm fipronil + 3000 ppm Polymer B, after 20 h
[18] = Example 5, 600 ppm fipronil, no polymer, after 20 h

For `CN(C(=O)c1ccccc1)c1cccc(C(=O)Nc2c(Br)cc(C(F)(C(F)(F)F)C(F)(F)F)cc2C(F)(F)F)c1F` [Broflanilide, broflanilide], the “Average Migration” value [1, 3] was 9.29 cm, the Migration [1, 3] was 8.89 cm and 9.34 cm (2×) and 9.6 cm and the “Average Migration” value [1, 4] was 8.74 cm. For the same compound, the Migration [1, 4] was 8.53 cm and 8.62 cm and 8.60 cm and 9.19 cm, the “Average Migration” value [1, 5] was 8.79 cm and the Migration [1, 5] was 8.37 cm and 9.22 cm and 8.74 cm and 8.82 cm. The “Average Migration” value [1, 6] was 7.78 cm, the Migration [1, 6] was 7.90 cm and 7.72 cm and 7.71 cm and 7.80 cm and the “Average Migration” value [1, 7] was 7.98 cm. For the same compound, the Migration [1, 7] was 7.98 cm and 7.77 cm and 8.04 cm and 8.02 cm, the “Average Migration” value [1, 8] was 7.72 cm and the Migration [1, 8] was 7.73 cm and 7.69 cm and 7.82 cm and 7.64 cm. For the same compound, the “Average Migration” value [1, 9] was 6.89 cm, the Migration [1, 9] was 7.32 cm and 6.75 cm and 6.61 cm and 6.88 cm and the “Concentration of broflanilide in segment 0-2 cm (average of four replicates)” value [2, 10] was 170 ppm. For the same compound, the “Concentration of broflanilide in segment 2-4 cm (average of four replicates)” value [2, 10] was 36 ppm, the “Concentration of broflanilide in segment 4-6 cm (average of four replicates)” value [2, 10] was 16 ppm and the “Concentration of broflanilide in segment 6-8 cm (average of four replicates)” value [2, 10] was 4 ppm. The “Concentration of broflanilide in segment 8-10 cm (average of four replicates)” value [2, 10] was 0 ppm, the “Concentration of broflanilide in segment 0-2 cm (average of four replicates)” value [2, 11] was 127 ppm and the “Concentration of broflanilide in segment 2-4 cm (average of four replicates)” value [2, 11] was 51 ppm. For the same compound, the “Concentration of broflanilide in segment 4-6 cm (average of four replicates)” value [2, 11] was 3 ppm, the “Concentration of broflanilide in segment 6-8 cm (average of four replicates)” value [2, 11] was 0 ppm and the “Concentration of broflanilide in segment 8-10 cm (average of four replicates)” value [2, 11] was 0 ppm.

For `CCOCn1c(-c2ccc(Cl)cc2)c(C#N)c(Br)c1C(F)(F)F` [Chlorfenapyr, chlorfenapyr], the Migration ([1]; Example 1, 600 ppm chlorfenapyr (Phantom SC), no polymer, Greenville silt loam, 20 hours) was 7.7780 cm and 7.5100 cm and 7.6600 cm and 7.7640 cm, the “Average Migration” value [1, 12] was 8.39 cm and the Migration [1, 12] was 8.3770 cm and 8.3350 cm and 8.4290 cm and 8.4350 cm. For the same compound, the “Average Migration” value [1, 13] was 8.81 cm, the Migration [1, 13] was 8.7420 cm and 8.7610 cm and 8.8760 cm and 8.8460 cm and the “Average Migration” value ([1]; Example 1, 600 ppm chlorfenapyr, no polymer, Greenville silt loam, 20 hours) was 7.68 cm.

With `N#Cc1nn(-c2c(Cl)cc(C(F)(F)F)cc2Cl)c(N)c1[S+]([O-])C(F)(F)F` (stereo not drawn) [Fipronil, fipronil] the Migration ([1]; Example 5, 600 ppm fipronil (Termidor SC), no polymer, after 2 h) was 6.0 cm and 6.1 cm and 6.5 cm and 6.4 cm, the “Average Migration” value [1, 14] was 6.70 cm and the Migration [1, 14] was 6.5 cm and 7.0 cm and 6.7 cm and 6.6 cm. For the same compound, the “Average Migration” value [1, 15] was 7.93 cm, the Migration [1, 15] was 7.7 cm and 8.0 cm (3×) and the “Average Migration” value [1, 16] was 6.98 cm. The Migration [1, 16] was 7.1 cm and 7.0 cm (2×) and 6.8 cm, the “Average Migration” value [1, 17] was 8.40 cm and the Migration [1, 17] was 8.5 cm and 8.3 cm and 8.4 cm (2×). The “Average Migration” value ([1]; Example 5, 600 ppm fipronil, no polymer, after 2 h) was 6.25 cm, the “Average Migration” value [1, 18] was 7.38 cm and the Migration [1, 18] was 7.0 cm and 7.4 cm (2×) and 7.7 cm.
